Experimental findings from ChEMBL document CHEMBL5352392, “Design, synthesis, and biological evaluation of novel dual inhibitors of heat shock protein 90/mammalian target of rapamycin (Hsp90/mTOR) against bladder cancer cells” (Eur J Med Chem, 2022) are described below.

Assay [1] has as its target Serine/threonine-protein kinase mTOR (Homo sapiens, UniProt P42345). Put plainly: Inhibition of mTOR (unknown origin) at 100 nM by kinase profiling assay relative to control.
For another assay, the system named is J82. Put plainly: Antiproliferative activity against human J82 cells assessed as inhibition of cell proliferation at 1 uM by CCK8 assay relative to control. It counts as functional. In general terms: Tetrazolium dyes change colour on reduction, which living cells bring about.
The subject of another assay is T-24. Put plainly: Antiproliferative activity against human T24 cells assessed as inhibition of cell proliferation at 1 uM by CCK8 assay relative to control. It counts as functional.
The subject of the next assay is SW780. The assay can be described thus: Antiproliferative activity against human SW780 cells assessed as inhibition of cell proliferation at 1 uM by CCK8 assay relative to control. It counts as functional.
A further assay deals with Heat shock protein HSP90 (Homo sapiens, UniProt P07900+P08238). The settings on record: dose 100.0 nM.

Description for Heat shock protein HSP90: Inhibition of Hsp90 (unknown origin) at 100 nM by TR-FRET assay relative to control

With `CC(C)c1cc(C(=O)N2CCc3c(sc4nc(N5CCOCC5)nc(N5CCC(F)(F)CC5)c34)C2)c(O)cc1O`, the inhibition in assay [1] came out at 45.1%; at Heat shock protein HSP90, 43.6%. The results for the inhibition at 1 µM with J82, in the assay on T-24 and with SW780 were 49.8%, 50.3% and 52.1%, respectively.
Taken in the same sequence, the figures for `CC(C)c1cc(C(=O)N2CCc3c(sc4nc(-c5ccc(NC(=O)Nc6ccccc6)cc5)nc(N5CCOCC5)c34)C2)c(O)cc1O` were 74.5%, 59.2%, 79.7%, 60.1% and 66.2%.
For `CCNC(=O)Nc1ccc(-c2nc(N3CCOCC3)c3c4c(sc3n2)CN(C(=O)c2cc(C(C)C)c(O)cc2O)CC4)cc1`, the figures for the inhibition (in assay [1]; at Heat shock protein HSP90) were 68.6% and 62.2%, respectively. For the same molecule, the inhibition at 1 µM in the assay with J82 came to 67.6%; in the assay on T-24, 57.9%; with SW780, 70.2%.
Regarding `CC(C)c1cc(C(=O)N2CCc3c(sc4nc(-c5ccc(NC(=O)N6CCCCC6)cc5)nc(N5CCOCC5)c34)C2)c(O)cc1O`, the inhibition is 50.4% in assay [1] and 46.7% at Heat shock protein HSP90. Moreover, the inhibition at 1 µM worked out at 54.9% with J82, 41.6% in the assay with T-24 and 45.1% with SW780.
In the same order, the values of `CC(C)c1cc(C(=O)N2CCc3c(sc4nc(-c5ccc(NC(=O)Nc6cccc(F)c6)cc5)nc(N5CCOCC5)c34)C2)c(O)cc1O` are 47.7%, 64.9%, 58.8%, 63.8% and 59.9%.
As for `CC(C)c1cc(C(=O)N2CCc3c(sc4nc(N5CCCC5)nc(N5CCOCC5)c34)C2)c(O)cc1O`, the inhibition in assay [1] turned out to be 52.3%; at Heat shock protein HSP90, 46.6%. Besides, the inhibition at 1 µM in the assay on J82 stood at 43.1%; in the assay on T-24 it was 54%; in the assay on SW780 it was 42.1%.
Turning to `CN1CCc2c(sc3nc(-c4ccncc4)nc(N4CCOCC4)c23)C1`, the inhibition in assay [1] was determined as 44.3%. Further, the inhibition at 1 µM was 37.6% in the assay with J82, 30.5% in the assay with T-24 and 26.3% in the assay on SW780.
For the molecule `Cc1cccc(NC(=O)Nc2ccc(-c3nc(N4CCOCC4)c4c5c(sc4n3)CN(C(=O)c3cc(C(C)C)c(O)cc3O)CC5)cc2)c1`, the inhibition was 74.7% in assay [1] and 64.6% against Heat shock protein HSP90. The inhibition at 1 µM with J82 is 60.5%; in the assay on T-24 it was 84.1%; with SW780, 62.5%.
For `CC(C)c1cc(C(=O)N2CCc3c(sc4nc(-c5ccncc5)nc(N5CCOCC5)c34)C2)c(O)cc1O`, the inhibition in assay [1] came out at 49.8%; against Heat shock protein HSP90, 35.4%. The inhibition at 1 µM is 37.8% in the assay on J82, 47.1% in the assay on T-24 and 39.5% with SW780.
With `CC(C)c1cc(C(=O)N2CCc3c(sc4nc(N5CCOCC5)nc(N5CCOC(F)(F)C5)c34)C2)c(O)cc1O`, the inhibition in assay [1] stood at 44.1%; on Heat shock protein HSP90, 27.5%. Also, the inhibition at 1 µM in the assay with J82 was determined as 41.4%; in the assay with T-24 it was 42.1%; in the assay with SW780, 37.1%.
In the same order, the values of `CC(C)c1cc(C(=O)N2CCc3c(sc4nc(-c5ccc(NC(=O)Nc6ccc(F)cc6)cc5)nc(N5CCOCC5)c34)C2)c(O)cc1O` are 77.4%, 63.2%, 57.8%, 76.8% and 69.8%.
For `CCNC(=O)N(C(=O)NCC)c1ccc(-c2nc(N3CCOCC3)c3c4c(sc3n2)CN(C(=O)c2cc(C(C)C)c(O)cc2O)CC4)cc1`, the inhibition amounted to 53.5% in assay [1] and 55.7% against Heat shock protein HSP90. The inhibition at 1 µM in the assay with J82 worked out at 53.4%; in the assay with T-24, 61%; with SW780, 63.2%.
For the molecule `Cc1ccccc1NC(=O)Nc1ccc(-c2nc(N3CCOCC3)c3c4c(sc3n2)CN(C(=O)c2cc(C(C)C)c(O)cc2O)CC4)cc1`, the inhibition in assay [1] was found to be 68.2%; on Heat shock protein HSP90, 62.6%. For the same molecule, the inhibition at 1 µM in the assay with J82 was found to be 66.2%; with T-24, 78%; in the assay on SW780 it was 53.7%.
For `CC(C)c1cc(C(=O)N2CCc3c(sc4nc(-c5ccc(NC(=O)Nc6ccccc6F)cc5)nc(N5CCOCC5)c34)C2)c(O)cc1O`, the values for the inhibition (in assay [1]; against Heat shock protein HSP90) were 74.8% and 70%, respectively. The inhibition at 1 µM came to 78.7% in the assay on J82, 70.1% with T-24 and 83.7% in the assay with SW780.
Turning to `CC(C)c1cc(C(=O)N2CCc3c(sc4nc(NC5CCOCC5)nc(N5CCOCC5)c34)C2)c(O)cc1O`, the inhibition was determined as 57.5% in assay [1] and 58% against Heat shock protein HSP90. Further, the results for the inhibition at 1 µM in the assay with J82, with T-24 and in the assay on SW780 were 57.6%, 49.7% and 61%, respectively.
Take `CC(C)c1cc(C(=O)N2CCc3c(sc4nc(-c5ccc(NC(=O)N6CCOCC6)cc5)nc(N5CCOCC5)c34)C2)c(O)cc1O`: the inhibition came to 53.7% in assay [1] and 58.4% against Heat shock protein HSP90. In addition, the inhibition at 1 µM in the assay on J82 amounted to 67.2%; in the assay with T-24, 44.8%; in the assay on SW780, 49.8%.
Regarding `CC(C)c1cc(C(=O)N2CCc3c(sc4nc(N5CCOCC5)nc(N5CCCCC5)c34)C2)c(O)cc1O`, the inhibition in assay [1] is 56.6%; at Heat shock protein HSP90 it was 54.9%. The inhibition at 1 µM in the assay with J82 came to 55.4%; in the assay with T-24 it was 57.1%; with SW780, 47.6%.
As to `CC(C)c1cc(C(=O)N2CCc3c(sc4nc(N5CCOCC5)nc(NC5CCOCC5)c34)C2)c(O)cc1O`, the values for the inhibition (in assay [1]; at Heat shock protein HSP90) were 33.7% and 38.2%, respectively. For the same molecule, the inhibition at 1 µM with J82 turned out to be 37.1%; in the assay on T-24, 29.5%; with SW780, 38.9%.
For `CC(C)c1cc(C(=O)N2CCc3c(sc4nc(N5CCCCC5)nc(N5CCOCC5)c34)C2)c(O)cc1O`, the values for the inhibition (in assay [1]; on Heat shock protein HSP90) were 55.7% and 46.6%, respectively. The values for the inhibition at 1 µM in the assay on J82, in the assay on T-24 and in the assay with SW780 were 55%, 43.5% and 49.5%, respectively.
As to `CC(C)c1cc(C(=O)N2CCc3c(sc4nc(-c5ccc(NC(=O)Nc6ccc(C(F)(F)F)cc6)cc5)nc(N5CCOCC5)c34)C2)c(O)cc1O`, the inhibition worked out at 66.4% in assay [1] and 62.8% against Heat shock protein HSP90. Also, the inhibition at 1 µM with J82 was determined as 69%; with T-24 it was 61.3%; in the assay with SW780, 61.3%.
Consider `CC(C)c1cc(C(=O)N2CCc3c(sc4nc(N5CCC(F)(F)CC5)nc(N5CCOCC5)c34)C2)c(O)cc1O`, for which the inhibition in assay [1] came out at 41.3%; against Heat shock protein HSP90, 36.3%. For the same molecule, the inhibition at 1 µM in the assay on J82 was 45%; with T-24 it was 34.4%; in the assay with SW780 it was 37.9%.
Consider `CC(C)c1cc(C(=O)N2CCc3c(sc4nc(N5CCOC(F)(F)C5)nc(N5CCOCC5)c34)C2)c(O)cc1O`, for which the inhibition is 57.6% in assay [1] and 53.8% against Heat shock protein HSP90. Besides, the inhibition at 1 µM in the assay with J82 came out at 62.7%; in the assay on T-24, 63.8%; in the assay with SW780, 58.8%.
On to `CC(C)c1cc(C(=O)N2CCc3c(sc4nc(N5CCOCC5)nc(N5CCCC5)c34)C2)c(O)cc1O`, for which the inhibition was 40.9% in assay [1] and 53% against Heat shock protein HSP90. For the same molecule, the inhibition at 1 µM in the assay with J82 stood at 47.9%; with T-24, 57.7%; in the assay with SW780, 46%.
For the molecule `CC(C)c1cc(C(=O)N2CCc3c(sc4nc(-c5ccc(NC(=O)Nc6ccc(Cl)cc6)cc5)nc(N5CCOCC5)c34)C2)c(O)cc1O`, the inhibition in assay [1] was 77.3%; at Heat shock protein HSP90, 66.5%. The inhibition at 1 µM came out at 83.9% in the assay with J82, 86% with T-24 and 83.2% in the assay with SW780.
Taken in the same sequence, the figures for `CC(C)c1cc(C(=O)N2CCc3c(sc4nc(N5CCOCC5)nc(N5CCOCC5)c34)C2)c(O)cc1O` were 68.8%, 42.4%, 65%, 44.8% and 62.7%.
As to `CC(C)c1cc(C(=O)N2CCc3c(sc4nc(N5CCOCC5)nc(N5CCN(C)CC5)c34)C2)c(O)cc1O`, the figures for the inhibition (in assay [1]; against Heat shock protein HSP90) were 32.7% and 40.8%, respectively. The figures for the inhibition at 1 µM in the assay on J82, with T-24 and in the assay with SW780 were 37.2%, 40.9% and 44.9%, respectively.
As to `CC(C)c1cc(C(=O)N2CCc3c(sc4nc(-c5ccc(N)cc5)nc(N5CCOCC5)c34)C2)c(O)cc1O`, the inhibition amounted to 67.4% in assay [1] and 57.8% at Heat shock protein HSP90. In addition, the inhibition at 1 µM with J82 stood at 64.4%; with T-24, 70.6%; in the assay with SW780, 66.2%.
Taken in the same sequence, the figures for `CC(C)c1cc(C(=O)N2CCc3c(sc4nc(-c5ccc(NC(=O)Nc6cc(F)cc(F)c6)cc5)nc(N5CCOCC5)c34)C2)c(O)cc1O` were 70.5%, 58.1%, 78%, 61.3% and 53.5%.
For `CC(C)c1cc(C(=O)N2CCc3c(sc4nc(N5CCOCC5)nc(NCCN5CCOCC5)c34)C2)c(O)cc1O`, the inhibition stood at 39.1% in assay [1] and 81.5% on Heat shock protein HSP90. Also, the inhibition at 1 µM in the assay with J82 came to 58.7%; in the assay on T-24, 50.2%; in the assay on SW780, 75%.
`CN1CCc2c(sc3nc(-c4ccc(N)cc4)nc(N4CCOCC4)c23)C1` yielded an inhibition in assay [1] of 66.2%. The inhibition at 1 µM in the assay on J82 stood at 50.4%; in the assay with T-24, 32.8%; in the assay with SW780, 20.7%.

In general, inhibition refers to the relative decrease from the control value, in per cent.
